What is called EC50 is the concentration that produces a half-maximal response. As a reminder, the IC50 is the point on the concentration scale where inhibition reaches its midpoint. A lower IC50 goes with inhibition by little substance.

Consider 50 compounds from PubChem BioAssay AID179 (DTP/NCI, 2004).

This assay concerns CEM cells HIV-1 protection, formazan growth assay. Kind of assay: NCI AIDS Antiviral Assay. Particulars: for IC50: measured here: growth of uninfected CEM cells. The procedure, abridged: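 Protection of CEM cells against HIV-1 measured as cell growth via soluble formazan read-out, with five concentrations tested on both infected and uninfected cells; failure to protect may reflect toxicity.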

Active and inactive are the calls of the source.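 The calls were made as follows: active = compounds giving half or more protection of infected cells from virus-caused growth loss, again on retest; inactive = the rest.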 Where a SMILES comes first, the peptide text is derived from it. The star is where a group is joined. Boc = CC(C)(C)OC(=O)*

On to `Clc1ccc(C2ON=C(c3ccccc3)N2C23CC4CC(CC(C4)C2)C3)c(Cl)c1` (stereo not drawn), for which the EC50 is > 200 µM and the IC50 was > 200 µM.

As to `CCC1=C(C)c2cc3[n-]c(cc4nc(cc5[n-]c(cc1n2)c(C)c5CCC(=O)OC)C(CCC(=O)OC)=C4C)c(C)c3CC.[Cu+2]`, the result was inactive.

For `O=C(OCCc1ccccc1)c1ccc2c(O)c(O)ccc2c1`, the EC50 is > 8.32 µM and the 50% inhibitory concentration (IC50) turned out to be 6.03 µM.

In the case of `CN=c1ncn(C)c2ncn(C/C=C(\C)CC[C@@]3(C)C(C)CCC4(O)C3CCCC4(C)C)c12` (stereo partly drawn), the outcome was inactive.

`CC1(C(N)=O)OC12CCCCC2` (stereo not drawn): the EC50 is > 200 µM and the IC50 was > 200 µM.

Consider `CC(=Nc1ccccc1C(=O)[O-])c1c([O-])ccc2c(C)cc(=O)oc12.[Ni+2].[OH3+]`, for which the EC50 was > 2.51 µM and the IC50 was > 2.51 µM.

For `CC(=O)C(C=NCCN=CC(C(C)=O)C(C)=O)C(C)=O.[Ni]`, the EC50 is > 200 µM and the 50% inhibitory concentration (IC50) was > 200 µM.

Turning to `CSc1nc2c(=S)[nH]c(=S)[nH]c2s1`, the EC50 is > 105 µM and the IC50 is > 105 µM.

As for `CCOc1ccc2c(C)cc(=O)oc2c1`, the EC50 is > 66.1 µM and the IC50 was > 66.1 µM.

For the compound `COC(=O)C(/C(=N/N)C(=O)Nc1ccc(C)c(C)c1)c1nc2ccc(Cl)cc2[nH]c1=O` (stereo not drawn), the EC50 is > 214 µM and the IC50 is 135 µM.

Take `CCOC(=O)c1c(-c2ccccc2)c(C)cn1C`: the EC50 was > 200 µM and the half-inhibitory concentration (IC50) amounted to 120 µM.

`CC(C)CCC[C@@H](C)[C@H]1CC[C@H]2[C@@H]3CC=C4CC(OCCCCN(O)CCCSC5OC(CO)C(O)C(O)C5O)CC[C@]4(C)[C@H]3CC[C@]12C` (stereo partly drawn): the EC50 was > 200 µM and the IC50 is 35.5 µM.

`CC1=CC(C)(C)NC(=S)N1CCO`: the outcome was inactive.

Take `Cc1ccc(/C=C/C(=O)C(C)C)cc1`: the EC50 is > 200 µM and the half-inhibitory concentration (IC50) amounted to 70.8 µM.

Take `CCCC(=O)Nc1cc(C)c(NC(=O)CN(CC)CC)c(C)c1`: the EC50 is > 200 µM and the 50% inhibitory concentration (IC50) was > 200 µM.

On to `COc1ccc(C2CC(=O)c3c(OC(C)=O)cc(OC(C)=O)cc3O2)cc1OC(C)=O` (stereo not drawn), for which the EC50 was > 200 µM and the IC50 is 7.76 µM.

Consider `OC1c2ccccc2C2(O)C1C(c1ccccc1)C(c1ccccc1)C2(O)c1ccccc1` (stereo not drawn), for which the result was inactive.

Turning to `N#Cc1cc2c(n(C3OC(CO)C(O)C(O)C3O)c1=S)CCCCC2` (stereo not drawn), the EC50 was > 200 µM and the half-maximal inhibitory concentration (IC50) is > 200 µM.

Consider `O=S(=O)(C1=CC(S(=O)(=O)c2ccccc2)CN(Cc2ccccc2)C1c1ccccc1)c1ccccc1` (stereo not drawn), for which the result was inactive.

`CC1=Nc2ccccc2NC(=O)C1`: the EC50 was > 200 µM and the IC50 is > 200 µM.

Turning to `Nc1cccc(P(N)(N)=O)c1`, the EC50 is > 200 µM and the IC50 was > 200 µM.

Take `COc1ccc(C(C#N)NCCCCCCNC(C#N)c2ccc(OC)cc2)cc1` (stereo not drawn): the EC50 was > 200 µM and the 50% inhibitory concentration (IC50) was > 200 µM.

For the compound `O=c1[nH]c(=O)n(C2C=CC(CO)O2)cc1F` (stereo not drawn), the EC50 is > 200 µM and the IC50 was > 200 µM.

As for `NCCCCCCNS(=O)(=O)c1cccc2c(Cl)cccc12`, the EC50 was > 200 µM and the 50% inhibitory concentration (IC50) worked out at 13.5 µM.

With `CC[C@]12C=CCN3CCC4(c5cc([C@]6(C(=O)OC)C[C@H]7CN(CCc8c6[nH]c6ccccc86)CC6CCCCC67)c(OC)cc5N(C)C4[C@@](O)(C(=O)OC)C1OC(C)=O)[C@@H]32` (stereo partly drawn), the EC50 was > 89.1 µM and the IC50 turned out to be 1.7 µM.

Turning to `C=CC1(C)CCC(C(C)C(=O)C(C=C(C)C)OC(C)=O)C12C(=O)Oc1ccccc1C2=O` (stereo not drawn), the EC50 was > 30.9 µM and the IC50 was 29.5 µM.

Consider `Cc1cccc2c(N)c3cccc(C(=O)NCC[N+]4(Cc5ccc([N+](=O)[O-])cc5)CCOCC4)c3nc12`, for which the EC50 was > 200 µM and the IC50 turned out to be 30.2 µM.

As for `Cc1cccc(-n2nc3c(=O)n(C)c(=O)n(C)c3nc2=O)c1`, the EC50 is > 200 µM and the concentration for half-maximal inhibition (IC50) is > 200 µM.

For `C1CSCCSCCSCCSC1`, the EC50 is > 38.9 µM and the IC50 is > 38.9 µM.

Turning to `c1ccc(-c2csc3c2-n2cccc2C3N2CCCC2)cc1` (stereo not drawn), the EC50 is > 200 µM and the half-maximal inhibitory concentration (IC50) stood at 13.5 µM.

Regarding `O=c1ccc2cc(O)ccc2o1`, the EC50 is > 200 µM and the IC50 is > 200 µM.

For the compound `O=S(=O)(O)c1ccc(OCCCCCCCCCCOc2ccc(S(=O)(=O)O)cc2)cc1`, the EC50 was > 25.7 µM and the IC50 was > 25.7 µM.

With `Cc1cc(C)c2c(c1C)CN1CN2Cc2c(C)c(C)cc(C)c21`, the outcome was inactive.

Take `CC(C(=O)ON1C(=O)CCC1=O)c1ccc(C(=O)c2ccccc2)s1` (stereo not drawn): the EC50 was > 200 µM and the IC50 is > 200 µM.

For the compound `CCO/N=[N+](\[O-])N(CC)CC`, the EC50 was > 9770 µM and the IC50 is 8710 µM.

In the case of `CCOC(=O)c1sc2c(C(=O)OCC)n3cc(C)cc(C)c3c2c1O`, the outcome was inactive.

As to `CSc1nnc(CF)c(=O)[nH]1`, the EC50 is > 200 µM and the half-inhibitory concentration (IC50) was > 200 µM.

As to `CNC(=O)CNC(=O)C(NC(=O)CNC(=O)C1CCCN1C(=O)C(C)NC(=O)C(NC(=O)OC(C)(C)C)C(C)C)C(C)C` (stereo not drawn) (Boc-VAPGVG-NHMe; configuration not given here), the EC50 is > 200 µM and the half-maximal inhibitory concentration (IC50) was > 200 µM.

In the case of `CC1OC(OCC2OC(Oc3c(-c4ccc(O)cc4)oc4cc(O)cc(O)c4c3=O)C(OC3OC(C)C(O)C(O)C3O)C(O)C2O)C(O)C(O)C1O` (stereo not drawn), the EC50 is > 339 µM and the IC50 is > 339 µM.

Consider `CC(=O)NCCc1c[nH]c2ccc(Cl)cc12`, for which the EC50 is > 200 µM and the concentration for half-maximal inhibition (IC50) came to 195 µM.

Turning to `Cc1ccccc1N=O`, the EC50 is > 200 µM and the 50% inhibitory concentration (IC50) is 9.77 µM.

Regarding `O=c1c2ccccc2n2c(-c3ccc(O)cc3)nnc2n1-c1ccccc1`, the EC50 is > 200 µM and the concentration for half-maximal inhibition (IC50) was > 100 µM.

For the compound `CC1(C)Oc2ccc3c4c(c(=O)oc3c2[C@@H](OC(=O)C23CCC(C)(C(=O)O2)C3(C)C)[C@H]1OC(=O)C12CCC(C)(C(=O)O1)C2(C)C)CCCC4` (stereo partly drawn), the concentration for a half-maximal effect (EC50) was 0.813 µM and the half-inhibitory concentration (IC50) worked out at 12 µM.

With `Nc1ccc(/C=C/c2ccc(N=Nc3cc(S(=O)(=O)O)c4cccnc4c3O)cc2S(=O)(=O)O)c(S(=O)(=O)O)c1`, the EC50 was 34.7 µM and the IC50 is > 200 µM.

Take `CC(C)CC(C(N)=O)C(=O)NC(Cc1ccccc1)NC(=O)CNC(=O)OC(C)(C)C` (stereo not drawn): the EC50 was > 25.1 µM and the IC50 is > 25.1 µM.

With `CN1Cc2ccccc2[C@H]2C(c3ccccc3)=NN(c3ccccc3)[C@H]21`, the EC50 is > 200 µM and the half-maximal inhibitory concentration (IC50) is > 200 µM.

For the compound `Cc1cc(Br)cc(C)c1NC(=O)C(=O)C(C(=O)c1ccc(Cl)c(Cl)c1)C1OC(=O)c2ccccc21` (stereo not drawn), the EC50 was > 49 µM and the half-maximal inhibitory concentration (IC50) was 6.76 µM.

Turning to `COc1cccc2c1C(=O)c1ccc3cc(CCl)cc(O)c3c1C2=O`, the EC50 is > 200 µM and the IC50 stood at 0.468 µM.

With `COC(=O)C(CC(=O)Nc1ccc(C)cc1)C(=O)C(=O)Nc1c(C(C)C)cccc1C(C)C` (stereo not drawn), the EC50 was > 79.4 µM and the IC50 is > 79.4 µM.

As for `O=C(NOC(=O)c1ccc([N+](=O)[O-])cc1)c1ccc(Cl)cc1`, the EC50 was > 112 µM and the IC50 is > 112 µM.
